The source of these data is PubChem BioAssay AID248 (DTP/NCI, 2004).

The test system of the assay is L1210 leukemia ip in BDF1 mice, survival T/C. In words: NCI In Vivo Anticancer Drug Screen. Data for tumor model L1210 Leukemia (intraperitoneal) in B6D2F1 (BDF1) mice. Particulars: endpoint: mean survival time, higher = longer survival. The method, boiled down: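 Value reflects the ratio of survival in compound-treated mice to survival in vehicle-treated controls, with both groups carrying the same transplanted tumor.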

Where [1] appears, read: dose: 100.0 mg/kg/injection, schedule: Q01DX001 (ip), vehicle: saline.
[2] abbreviates: dose: 200.0 mg/kg/injection, schedule: Q01DX001 (ip), vehicle: saline.
The mark [3] stands for this setting: dose: 400.0 mg/kg/injection, schedule: Q01DX001 (ip), vehicle: saline.
Setting [4] is: dose: 75.0 mg/kg/injection, schedule: Q01DX001 (ip), vehicle: carboxymethylcellulose (CMC).
Setting [5] is: dose: 150.0 mg/kg/injection, schedule: Q01DX001 (ip), vehicle: carboxymethylcellulose (CMC).
The mark [6] stands for this setting: dose: 100.0 mg/kg/injection, schedule: Q01DX009 (ip), vehicle: Klucel (hydroxypropylcellulose) (HPC).
[7] abbreviates: dose: 100.0 mg/kg/injection, schedule: Q04DX003 (ip), vehicle: Klucel (hydroxypropylcellulose) (HPC).
Where [8] appears, read: dose: 200.0 mg/kg/injection, schedule: Q01DX009 (ip), vehicle: Klucel (hydroxypropylcellulose) (HPC).
Where [9] appears, read: dose: 200.0 mg/kg/injection, schedule: Q04DX003 (ip), vehicle: Klucel (hydroxypropylcellulose) (HPC).
The mark [10] stands for this setting: dose: 400.0 mg/kg/injection, schedule: Q04DX003 (ip), vehicle: Klucel (hydroxypropylcellulose) (HPC).
[11] abbreviates: dose: 400.0 mg/kg/injection, schedule: Q01DX009 (ip), vehicle: Klucel (hydroxypropylcellulose) (HPC).

“And” between values parts separate entries of the source, which are not always exact repeats. Equal entries are not always repeated. Inconclusive results and toxic doses are left out.

For the molecule `CC(C)C(N)(CCCN(C)C)c1cccc2ccccc12` (stereo unspecified), the T/C (dose: 100.0 mg/kg/injection, schedule: Q04DX002 (ip), vehicle: saline with Tween-80) was 98 % of control.

In the case of `Nc1c(Cl)ncnc1NC1COC(CO)C1O` (stereo unspecified), the T/C (dose: 100.0 mg/kg/injection, schedule: Q01DX001 (ip), vehicle: Klucel (hydroxypropylcellulose) (HPC)) was 100 % of control; the T/C (dose: 200.0 mg/kg/injection, schedule: Q01DX001 (ip), vehicle: Klucel (hydroxypropylcellulose) (HPC)) was 110 % of control; the T/C (dose: 400.0 mg/kg/injection, schedule: Q01DX001 (ip), vehicle: Klucel (hydroxypropylcellulose) (HPC)) is 100 % of control.

With `[N-]=[N+]=CC(=O)NCC(N)=O`, the T/C reads like this: (dose: 125.0 mg/kg/injection, schedule: Q01DX009 (ip), vehicle: other) 110 % of control; (dose: 125.0 mg/kg/injection, schedule: Q01DX009 (sc), vehicle: other) 91 % of control; (dose: 222.0 mg/kg/injection, schedule: Q01DX Z (ip), vehicle: water) 121 % of control; (dose: 250.0 mg/kg/injection, schedule: Q01DX009 (sc), vehicle: other) 97 % of control; (dose: 500.0 mg/kg/injection, schedule: Q01DX009 (sc), vehicle: other) 103 % of control; (dose: 750.0 mg/kg/injection, schedule: Q01DX009 (sc), vehicle: other) 97 % of control. In addition, under “dose: 750.0 mg/kg/injection, schedule: Q01DX Z (ip), vehicle: water”, the T/C is 104 % of control.

With `NC1C(=O)NC(=O)NC1=O`, the T/C (dose: 50.0 mg/kg/injection, schedule: Q01DX009 (ip), vehicle: carboxymethylcellulose (CMC)) is 100 % of control; the T/C (dose: 100.0 mg/kg/injection, schedule: Q01DX009 (ip), vehicle: carboxymethylcellulose (CMC)) is 103 % of control; the T/C (dose: 100.0 mg/kg/injection, schedule: Q04DX002 (ip), vehicle: Klucel (hydroxypropylcellulose) (HPC)) was 102 % of control; the T/C (dose: 200.0 mg/kg/injection, schedule: Q01DX009 (ip), vehicle: carboxymethylcellulose (CMC)) is 92 % of control; the T/C (dose: 200.0 mg/kg/injection, schedule: Q04DX002 (ip), vehicle: Klucel (hydroxypropylcellulose) (HPC)) was 104 % of control.

On to `O=S(=O)(O)CCS`, for which the T/C is, setting by setting: under setting [1], 94 % of control; under setting [2], 105 % of control; under setting [3], 100 % of control.

With `CC([NH-])C[NH-].[Cl][Pt+2][Cl]` (stereo unspecified), the T/C is 108 % of control (dose: 0.31 mg/kg/injection, schedule: Q01DX009 (ip), vehicle: saline); 116 % of control and 119 % of control (dose: 0.62 mg/kg/injection, schedule: Q01DX009 (ip), vehicle: saline); 111 % of control (dose: 1.1 mg/kg/injection, schedule: Q01DX009 (ip), vehicle: saline); 122 % of control (dose: 1.25 mg/kg/injection, schedule: Q01DX009 (ip), vehicle: saline); 116 % of control (dose: 1.65 mg/kg/injection, schedule: Q01DX009 (ip), vehicle: saline); 173 % of control (dose: 3.75 mg/kg/injection, schedule: Q01DX009 (ip), vehicle: saline). In addition, the T/C runs as follows: (dose: 5.0 mg/kg/injection, schedule: Q01DX009 (ip), vehicle: saline) 93 % of control and 108 % of control; (dose: 6.25 mg/kg/injection, schedule: Q04DX002 (ip), vehicle: Klucel (hydroxypropylcellulose) (HPC)) 112 % of control; (dose: 12.5 mg/kg/injection, schedule: Q04DX002 (ip), vehicle: Klucel (hydroxypropylcellulose) (HPC)) 112 % of control; (dose: 25.0 mg/kg/injection, schedule: Q04DX002 (ip), vehicle: Klucel (hydroxypropylcellulose) (HPC)) 104 % of control.

For the molecule `Cc1ncccc1CCO`, the T/C by setting is: under setting [1], 96 % of control; under setting [2], 100 % of control; under setting [3], 102 % of control.

In the case of `Cc1cccc(S(=O)(=O)CS(=O)(=O)c2cccc(C)c2)c1`, the T/C under setting [4] was 102 % of control; the T/C under setting [5] is 96 % of control; the T/C (dose: 300.0 mg/kg/injection, schedule: Q01DX001 (ip), vehicle: carboxymethylcellulose (CMC)) is 91 % of control.

Take `CCN(CC)CCC(O)c1ccc2c(c1)[nH]c1ccccc12` (stereo unspecified): the T/C is 97 % of control under setting [4] and 103 % of control under setting [5].

Take `CCOc1ccccc1-c1nc2ccccc2s1`: the T/C by setting is: (dose: 100.0 mg/kg/injection, schedule: Q04DX003 (ip), vehicle: DMSO) 89 % of control; (dose: 200.0 mg/kg/injection, schedule: Q04DX003 (ip), vehicle: DMSO) 89 % of control; (dose: 400.0 mg/kg/injection, schedule: Q04DX003 (ip), vehicle: DMSO) 103 % of control.

For `S=P(/C=C/c1ccccc1)(c1ccccc1)c1ccccc1`, the T/C runs as follows: under setting [6], 97 % of control; under setting [7], 95 % of control; under setting [8], 92 % of control; under setting [9], 92 % of control; under setting [10], 92 % of control.

On to `CCCCN(CC)CCNc1cc(C)nc(/N=C(\N)Nc2ccc(Cl)c(Cl)c2)n1`, for which the T/C by setting is: (dose: 18.75 mg/kg/injection, schedule: Q01DX009 (ip), vehicle: Klucel (hydroxypropylcellulose) (HPC)) 102 % of control; (dose: 37.5 mg/kg/injection, schedule: Q01DX009 (ip), vehicle: Klucel (hydroxypropylcellulose) (HPC)) 88 % of control.

As to `O=C(COc1ccc(Cl)cc1)Nc1cc(C(F)(F)F)ccc1Cl`, the T/C runs as follows: under setting [6], 94 % of control; under setting [7], 98 % of control; under setting [8], 86 % of control; under setting [9], 93 % of control; under setting [11], 86 % of control; under setting [10], 95 % of control.

With `CC1(C)C(O)(C#N)C(C)(C)C1(O)C#N` (stereo unspecified), the T/C (dose: 3.13 mg/kg/injection, schedule: Q01DX009 (ip), vehicle: saline) is 107 % of control; the T/C (dose: 6.25 mg/kg/injection, schedule: Q01DX009 (ip), vehicle: saline) was 115 % of control; the T/C (dose: 12.5 mg/kg/injection, schedule: Q01DX009 (ip), vehicle: saline) was 105 % of control.

Take `COc1ccc(NC(=O)c2ccccc2Cl)cc1`: the T/C reads like this: under setting [6], 97 % of control; under setting [7], 105 % of control; under setting [8], 95 % of control; under setting [9], 97 % of control; under setting [11], 95 % of control; under setting [10], 96 % of control.

For `Nc1ccc2c(c1)-n1cccc1C2=O`, the T/C runs as follows: under setting [7], 104 % of control; under setting [9], 101 % of control.

For `O=C(Nc1ccccc1C(F)(F)F)OCC1CCCO1` (stereo unspecified), the T/C reads like this: (dose: 100.0 mg/kg/injection, schedule: Q01DX009 (ip), vehicle: gum acacia) 109 % of control; (dose: 200.0 mg/kg/injection, schedule: Q01DX009 (ip), vehicle: gum acacia) 95 % of control; (dose: 400.0 mg/kg/injection, schedule: Q01DX009 (ip), vehicle: gum acacia) 100 % of control.

On to `CN(C)c1ccc(C=O)c(F)c1`, for which the T/C is, setting by setting: under setting [6], 96 % of control; under setting [8], 100 % of control; under setting [11], 110 % of control.

As to `COC(=O)/C=C\C(=O)O` (tested in a mixture with another compound), the T/C reads like this: (dose: 15.5 mg/kg/injection, schedule: Q#A X Z (oral), vehicle: carboxymethylcellulose (CMC)) 98 % of control; (dose: 31.25 mg/kg/injection, schedule: Q#A X Z (ip), vehicle: carboxymethylcellulose (CMC)) 101 % of control; (dose: 31.5 mg/kg/injection, schedule: Q#A X Z (oral), vehicle: carboxymethylcellulose (CMC)) 100 % of control; (dose: 63.0 mg/kg/injection, schedule: Q#A X Z (oral), vehicle: carboxymethylcellulose (CMC)) 100 % of control; (dose: 126.0 mg/kg/injection, schedule: Q#A X Z (oral), vehicle: carboxymethylcellulose (CMC)) 100 % of control.

Take `COC(=O)C(Cl)(Cl)C1(c2ccccc2)OCC(C)(C)N1C(=O)C(Cl)Cl` (stereo unspecified): the T/C is 115 % of control (dose: 100.0 mg/kg/injection, schedule: Q04DX003 (ip), vehicle: saline with Tween-80); 94 % of control (dose: 200.0 mg/kg/injection, schedule: Q04DX003 (ip), vehicle: saline with Tween-80); 103 % of control (dose: 400.0 mg/kg/injection, schedule: Q04DX003 (ip), vehicle: saline with Tween-80).

Consider `CCCC(NC(=O)C(C)Br)C(=O)O` (stereo unspecified), for which the T/C by setting is: (dose: 100.0 mg/kg/injection, schedule: Q01DX009 (ip), vehicle: saline with Tween-80) 88 % of control; (dose: 200.0 mg/kg/injection, schedule: Q01DX009 (ip), vehicle: saline with Tween-80) 98 % of control; (dose: 400.0 mg/kg/injection, schedule: Q01DX009 (ip), vehicle: saline with Tween-80) 95 % of control.
